Patent publication US20130253037A1, “AURORA A KINASE EFFECTORS” (PURDUE RESEARCH FOUNDATION, priority 2010, published 2013)

Assays:
[1] = molecular target: Aurora B-as7 (L138V, L154G-AB) kinase (Homo sapiens, UniProt Q96GD4, L138V/L154G); assay: In vitro kinase assay with AB-as7; format: biochemical; settings: phosphodonor as labelled
[2] = molecular target: T1, AA-as7 kinase (Aurora A LI85V, L201G) (Mus musculus, UniProt P97477, L185V/L201G); assay: In vitro kinase assay with AA-as7 and TPX2; format: biochemical, murine; settings: AA-as7; phosphodonor as labelled
T1 construct: the Aurora A mutant is the double mutant Aurora A (AA-as7); 6-His; made in house; host or cells: Sf9 insect cells (baculovirus, Bac-to-Bac)
T1 sequence (P97477 1-395 L185V/L201G): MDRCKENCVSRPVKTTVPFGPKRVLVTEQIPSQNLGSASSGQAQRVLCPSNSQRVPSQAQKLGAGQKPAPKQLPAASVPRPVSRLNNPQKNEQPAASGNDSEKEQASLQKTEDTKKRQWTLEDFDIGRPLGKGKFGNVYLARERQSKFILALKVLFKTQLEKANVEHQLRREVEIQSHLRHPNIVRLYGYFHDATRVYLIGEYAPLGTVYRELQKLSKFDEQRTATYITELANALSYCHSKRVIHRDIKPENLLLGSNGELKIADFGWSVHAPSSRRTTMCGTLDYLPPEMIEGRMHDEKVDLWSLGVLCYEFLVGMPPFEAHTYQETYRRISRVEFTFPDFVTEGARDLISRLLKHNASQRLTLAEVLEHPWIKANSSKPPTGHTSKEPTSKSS
Procedure: For in vitro labeling, Aurora A/TPX2 complex (on beads) was pre-incubated with 10 μM cold ATP for 10 min to activate the kinase. The beads were washed twice with kinase buffer, and then subjected to kinase assay with 2-5 μg of recombinant protein (such as PHLDA) and 1 μCi of [γ-^32P] ATP. Reactions were terminated by adding SDS sample buffer, separated by SDS-PAGE gel, transferred to PVDF membrane and exposed to Biomax MS film. Aurora A kinase assays were conducted using 1 μCi of [γ-^32P] ATP and 3 μg of Aurora A substrate peptide in a final volume of 30 μl at 30° C. as reported before (Sun, et al, (2008a) Mol. Biol. Cell 19, 3052-3069).
IC50 values were determined by fitting the data to a sigmoidal dose response curve using GraphPad Prism 4.0 software. Km and Vmax values were derived from the assay described above using various concentrations of AA peptide substrate and ATP. Km and Vmax values were determined using GraphPad Prism 4.0 software.

[3] = test system: wt kinases present in the MDA cell lysate; assay: In vitro kinase reaction with MDA cell lysate and [γ-32P] Phenethyl-ATP; format: biochemical; settings: cell lysate alone, without AA-as7/TPX2
Procedure: To prepare a labeled sample for 2D gel electrophoresis, kinase reactions with whole cell lysate or fractionated lysate were carried out as published before (Sun, et al, (2008a) Mol. Biol. Cell 19, 3052-3069). Gel spots were manually excised and automatically processed for peptide mapping experiments using a Micromass MassPREP Station in conjunction with manufacturer specified protocols.
An in vitro kinase reaction was performed using unsynchronized MDA cell lysate, [[γ-^32P] Phenethyl-ATP and Aurora A-as7/TPX2 to identify novel Aurora A substrates. […] Phenethyl ATP is specific for the engineered kinase and is not accepted by wt kinases present in the cell lysate. In contrast, when AA-as7 and TPX2 were added to the cell lysate along with Phenethyl ATP, it phosphorylated several proteins. These proteins are the direct targets of Aurora A. To isolate these targets, proteins were separated using 2D gel electrophoresis, isolated and visualized by autoradiography. Radiolabeled proteins were excised from gel and subsequent to trypsin digestion the peptide cleavage products were identified by tandem mass spectrometry. Several Aurora A substrates were identified including PHLDA1, p53 and vimentin.

Sequence of Aurora B-as7 (L138V, L154G-AB) kinase (Q96GD4 whole entry L138V/L154G): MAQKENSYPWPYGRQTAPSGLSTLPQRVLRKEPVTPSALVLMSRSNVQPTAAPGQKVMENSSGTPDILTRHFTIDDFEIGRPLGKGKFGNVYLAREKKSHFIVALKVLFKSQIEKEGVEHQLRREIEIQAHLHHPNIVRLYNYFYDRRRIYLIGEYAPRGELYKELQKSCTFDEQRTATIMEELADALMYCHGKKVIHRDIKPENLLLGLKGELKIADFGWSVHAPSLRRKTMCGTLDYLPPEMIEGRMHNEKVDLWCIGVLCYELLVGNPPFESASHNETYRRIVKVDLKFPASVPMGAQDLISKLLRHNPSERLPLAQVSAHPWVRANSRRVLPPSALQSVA

Kcat [1]: 6.2 s⁻¹ | Km [1]: 11.4 µM | Vmax [1]: 7.44 × 10^4 | Kcat [2]: 223 s⁻¹ | Km [2]: 11.6 µM | Vmax [2]: 3.02 × 10^6
Compound: O=P(O)(O)OP(=O)(O)OP(=O)(O)OC[C@H]1O[C@@H](n2cnc3c(NCCc4ccccc4)ncnc32)[C@H](O)[C@@H]1O [N^6-phenethyl ATP, N^6-(phenethyl) ATP]
labelling signal in cell lysate [3]: no signal
